Non-standard residues stand in square brackets, D forms with d. Residues, ends and D or L forms follow the SMILES beside them. *: point of attachment. Nva = CCC[C@H](N)C(=O)O; Cbz = O=C(OCc1ccccc1)*
Experiments:
Assay type in all cases: biochemical
[1] = target: recombinant WT T. cruzi proteasome (chymotrypsin-like activity, β5) (Trypanosoma cruzi, UniProt V5BU39+V5C017); experiment: biochemical; settings: for maximum % inhibition plateau, Chymotrypsin Assay, Wild-type: mean ± SD, N = 3 (N = 2 for DDD02091966), (a) mid-point plateau from biphasic curve fits
Procedure: (§1) Chymotrypsin-, trypsin-, and caspase-like activity assays were performed using a commercially available Proteasome-Glo 3-substrate system assay kit (catalog number G8532) (Promega Corporation) according to the manufacturers protocols and as previously described ([24]).
(§2) Prior to running assays, Proteasome-Glo buffer was used to reconstitute the luciferin detection reagent (containing a recombinant thermostable luciferase enzyme). The resuspended luciferin detection reagent was then mixed with Proteasome-Glo chymotrypsin-, trypsin- or caspase-like substrates (either 40 μM suc-Leu-Leu-Val-Tyr-aminoluciferin, 30 μM Z-Leu-Arg-Arg-aminoluciferin (Z is benzyloxycarbonyl) or 40 μM Z-Nle-Pro-Nle-Asp-aminoluciferin respectively (these concentrations represent 2x final assay concentrations)). These substrate mixtures were allowed to incubate at room temperature for 60 min prior to use to allow the removal of any contaminating free aminoluciferin.
(§3) Proteasome assays were carried out using 384-well, white, low-volume plates (catalog number 784904) (Greiner Bio-One) at room temperature (∼23 °C) in 8 μl reaction volumes. When activity checks were to be run in the presence or absence of a fixed concentration of proteasome inhibitor, 80 nL of the inhibitor (at a concentration 100x the required final assay concentration), or 80 nL dimethylsulfoxide (DMSO), were dispensed into assay plates using an Echo 550 acoustic dispenser (Labcyte).
(§4) A 1 in 2 dilution series of the various T. cruzi proteasome samples (native, recombinant WT, β4^R mutant, and Δβ1Δβ2 mutant) were produced in assay buffer (50 mM Tris–HCl, pH 7.5, 10 mM sucrose, 5 mM MgCl2, 1 mM DTT, 2 mM ATP, 150 mM NaCl, 1 mM EDTA, and 0.05 mg/ml bovine serum albumin). Subsequently, 4 μl of the various concentrations of diluted proteasome were added to assay plates using an electronic multichannel pipette (Integra Biosciences Ltd). When kinetic read activity checks were performed (Fig. 2), proteasome final assay concentrations used were 115 μg/ml, 115 μg/ml, and 230 μg/ml native proteasome (in the chymotrypsin, trypsin, and caspase assays, respectively), and 4.1 μg/ml, 3.4 μg/ml, or 1.4 μg/ml recombinant WT proteasome (in the chymotrypsin, trypsin, and caspase assays, respectively). When activity checks were to be run in the presence or absence of a proteasome inhibitor plates containing inhibitor or DMSO control were incubated with the relevant proteasome sample for 60 min at room temperature (this step was not included in activity check experiments where compounds were not used).
(§5) Following the 60 min incubation of proteasome and compound (if required), assays were initiated with the addition of 4 μl of substrate mix (containing substrate and the luciferin detection reagent) using an electronic multichannel pipette. Final assay concentrations of substrates used were either 20 μM Suc-Leu-Leu-Val-Tyr-aminoluciferin, 15 μM Z-Leu-Arg-Arg-aminoluciferin, or 20 μM Z-Nle-Pro-Nle-Asp-aminoluciferin for chymotrypsin-, trypsin- or caspase-like activity respectively.
(§6) Luminescence was read either kinetically or as an endpoint read using an EnVision 2102 Multilabel Reader (PerkinElmer, Inc) with 0.2 s per well reading time. When kinetic assays were run, luminescence was read every 5 min for 90 min. Endpoint assays were run for 60 min before luminescence was read. All data processing and linear fit analyses were performed using Microsoft Excel for Microsoft 365 software (Redmond, Washington; https://www.microsoft.com/).
(§7) When proteasome inhibitors were to be screened in the chymotrypsin, trypsin, and caspase assays, test compounds were dispensed into assay wells using an ECHO 550 acoustic dispenser (Labcyte) (final DMSO concentration 1%). Compounds were tested in either a 10-point concentration series (30 μM top final assay concentration, 1 in 3 dilution series) or a 12-point concentration series (30 μM top final assay concentration, 1 in 2.5 dilution series).

[2] = target: recombinant β4^R mutant T. cruzi proteasome (trypsin-like activity) (Trypanosoma cruzi, UniProt V5BCU3); settings: mean ± SD, N = 3
Procedure: (§8) Point mutations were created in individual subunits using overlapping PCR from the original templates using Polh and Tn7L primers outside the genes and suitable internal primers to introduce selected mutations. For Δβ1Δβ2, β1 Thr 55, and β2 Thr 67 were both mutated to Ala, the β4^R mutant was produced by mutating Phe 24 and Ile 29 to Leu and Met respectively in β4 subunit.
as §1, §2, §3, §4, §5, §6

[3] = target: native T. cruzi proteasome (trypsin-like activity, β2) (Trypanosoma cruzi, UniProt V5BCU3); experiment: Trypsin-like activity assay (Proteasome-Glo), native T. cruzi proteasome; settings: mean ± SD, N = 3; for IC50: read-out: pIC50, Trypsin Assay, Native (converted)
Procedure: as §1, §2, §7
(§9) Proteasome assays were then performed as described above using Promega Proteasome-Glo 3-substrate system assay kit. […] Diluted proteasome (4 μl) was added to assay plates using an electronic multichannel pipette (Integra Biosciences Ltd) and the proteasome incubated with compound for 60 min at room temperature.
(§10) Following the 60 min incubation of proteasome and compounds, assays were initiated with the addition of 4 μl of a substrate mix (containing substrate and the luciferin detection reagent) using an electronic multichannel pipette. Final assay concentrations of substrates used were either 20 μM Suc-Leu-Leu-Val-Tyr-aminoluciferin, 15 μM Z-Leu-Arg-Arg-aminoluciferin, or 20 μM Z-Nle-Pro-Nle-Asp-aminoluciferin for chymotrypsin-, trypsin-, or caspase-like activity, respectively. Following a further 60 min assay incubation, luminescence was read using an EnVision 2102 Multilabel Reader (PerkinElmer, Inc) with 0.2 s per well reading time.
(§11) All data processing was performed using Microsoft Excel for Microsoft 365 software.
(§12) Nonlinear dose-response curve fitting was carried out using the Microsoft Excel add-in, XLfit (IDBS). Percentage inhibition data were either fitted to a standard 4-parameter logistic fit model (XLfit model 205; Equation 2) or a biphasic model (either XLfit model 300; Equation 3 or a custom biphasic model; Equation 4 (used in cases where the top and/or bottom parameters deviated from 100%/0% inhibition)).(2) y=A+(B−A)/1+(C/x)^D Where A = % inhibition at bottom, B = % inhibition at top, C = IC50, D = slope, x = inhibitor concentration and y = % inhibition.(3) y=(A/(1+10^(C−log(x))∗B))+((100−A)/(1+10^(D−log(x))∗B)) With A = % inhibition at midplateau, B = slope, C = log(IC50^A), D = log(IC50^B)).
(§13) All IC50 data generated were converted to pIC50 using Equation 5.

[4] = target: recombinant WT T. cruzi proteasome (caspase-like activity, β1) (Trypanosoma cruzi, UniProt V5BHX1); experiment: Caspase-like activity assay (Proteasome-Glo), recombinant wild-type T. cruzi proteasome
Procedure: as §1, §2, §7, §9, §10, §11, §12, §13

[5] = target: recombinant WT T. cruzi proteasome (trypsin-like activity, β2) (Trypanosoma cruzi, UniProt V5BCU3); experiment: biochemical; settings: mean ± SD, N = 3; for IC50: read-out: pIC50, Trypsin Assay, Wild-type (converted)
Procedure: as §1, §2, §7, §9, §10, §11, §12, §13

[6] = target: native T. cruzi proteasome (caspase-like activity, β1) (Trypanosoma cruzi, UniProt V5BHX1); experiment: Caspase-like activity assay (Proteasome-Glo), native T. cruzi proteasome; settings: mean ± SD, N = 3; for IC50: read-out: pIC50, Caspase Assay, Native (converted)
Procedure: as §1, §2, §7, §9, §10, §11, §12, §13

[7] = target: recombinant β4^R mutant T. cruzi proteasome (caspase-like activity) (Trypanosoma cruzi, UniProt V5BHX1); experiment: Caspase-like activity assay (Proteasome-Glo), recombinant β4^R mutant T. cruzi proteasome
Procedure: as §8, §1, §2, §3, §4, §5, §6

[8] = target: recombinant Δβ1Δβ2 mutant T. cruzi proteasome (chymotrypsin-like activity) (Trypanosoma cruzi, UniProt V5BU39+V5C017); experiment: biochemical
Procedure: as §8, §1, §2, §3, §4, §5, §6

[9] = target: recombinant β4^R mutant T. cruzi proteasome (chymotrypsin-like activity) (Trypanosoma cruzi, UniProt V5BU39+V5C017, F24L/I29M); experiment: biochemical
Procedure: as §8, §1, §2, §3, §4, §5, §6

[10] = target: native T. cruzi proteasome (chymotrypsin-like activity, β5) (Trypanosoma cruzi, UniProt V5BU39+V5C017); experiment: Chymotrypsin-like activity assay (Proteasome-Glo), native T. cruzi proteasome
Procedure: as §1, §2, §7, §9, §10, §11, §12, §13

Row | SMILES | IC50 [1] [µM] | maximum % inhibition plateau, Chymotrypsin Assay, Wild-type [1] | pIC50, Trypsin Assay, β4^R mutant [2] | IC50 [3] [µM] | IC50 [4] [µM] | IC50 [5] [µM] | IC50 [6] [µM] | IC50 [7] [µM] | IC50 [8] [µM] | IC50 [9] [µM] | IC50 [10] [µM] | other results
1 | CC(C)C[C@H](NC(=O)CNC(=O)c1cc(Cl)ccc1Cl)B(O)O [Ixazomib, reference compound] | 0.0195 | 52.7 ± 21.9^ a % | 5.53 ± 0.03 | 8.71 | 0.055 | 6.92 | 0.0447 | 0.0468 | 0.0229 | 0.0132 | 0.0355 | –
2 | CCC[C@@H](C=O)NC(=O)[C@H](CC(C)C)NC(=O)[C@H](CC(C)C)NC(=O)OCc1ccccc1 [MG115, reference compound] (Cbz-Leu-Leu-[Nva]-aldehyde) | – | 93.3 ± 2.9% | 5.24 ± 0.05 | – | – | – | – | – | – | – | – | pIC50, Chymotrypsin Assay, Wild-type [1]: 6.07 ± 0.13; pIC50, Trypsin Assay, Native [3]: 4.89 ± 0.16; pIC50, Caspase Assay, Wild-type ([4]; mean ± SD, N = 3): 4.77 ± 0.07; pIC50, Trypsin Assay, Wild-type [5]: 4.97 ± 0.09; pIC50, Caspase Assay, Native [6]: 4.79 ± 0.11; pIC50, Caspase Assay, β4^R mutant ([7]; mean ± SD, N = 3): 5.03 ± 0.04; maximum % inhibition plateau, Chymotrypsin Assay, Δβ1Δβ2 mutant ([8]; mean ± SD, N = 3): 99.4 ± 1.0%; pIC50, Chymotrypsin Assay, Δβ1Δβ2 mutant ([8]; mean ± SD, N = 3): 6.38 ± 0.16; pIC50, Chymotrypsin Assay, β4^R mutant ([9]; mean ± SD, N = 3, biphasic curves (a): pIC50 of most potent curve): 6.24 ± 0.05; pIC50, Chymotrypsin Assay, Native ([10]; mean ± SD, N = 3, biphasic curves (a): pIC50 of most potent curve, 60 min preincubation): 6.04 ± 0.08
3 | CC(C)C[C@@H](C=O)NC(=O)[C@H](CC(C)C)NC(=O)[C@H](CC(C)C)NC(=O)OCc1ccccc1 [MG132, carbobenzoxy-l-leucyl-l-leucyl-l-leucinal, reference compound] (Cbz-Leu-Leu-Leu-aldehyde) | 0.115 | 66.1 ± 6.6^ a % | 5.21 ± 0.11 | 8.91 | 3.31 | 8.32 | 3.98 | 3.09 | 0.0912 | 0.0603 | 0.12 | –
4 | COC[C@H](NC(=O)c1cnc(C)s1)C(=O)N[C@@H](COC)C(=O)N[C@@H](Cc1ccccc1)C(=O)[C@@]1(C)CO1 [Oprozomib] | – | – | <4.52 | > 30.2 | > 30.2 | > 30.2 | > 30.2 | > 30.2 | – | – | – | –

Reference: publication PMC11748689, “Pharmacological and structural understanding of the Trypanosoma cruzi proteasome provides key insights for developing site-specific inhibitors” (The Journal of Biological Chemistry, 2024)
